Results: patent publication US20160297851A1, “BROAD SPECTRUM […]” (priority 2012, published 2016)
Values after ≈ are worked out from the molar mass of the structure shown. Like-named read-outs stand apart in the source and are kept apart here.

Assays:
[1] = system: Gram-negative strains (E. coli, P. aeruginosa); test: MIC panel; type: cell-based; settings: for activity in words: wild type or mutant Gram-negative strains
[2] = system: lepB(P29S) S. aureus 8325; test: microbe, parasite or virus in culture; type: cell-based, Staphylococcus aureus; settings: for MIC: Sensitive (genetically sensitized) strain; for minimal inhibitory concentration (MIC): Table 3, P3 position derivatives, unit not given
[3] = system: wild type S. epidermidis RP62A; test: microbe, parasite or virus in culture; type: cell-based, Staphylococcus epidermidis; settings: for MIC: Sensitive strain (SPase without the resistance-conferring Pro); for minimal inhibitory concentration (MIC): Table 3, P3 position derivatives, unit not given
[4] = system: lepB(P84L) E. coli MG1655; test: microbe, parasite or virus in culture; type: cell-based, Escherichia coli; settings: for MIC: Escherichia coli, MG1655, Sensitive (genetically sensitized) strain, read-out: MIC; for minimal inhibitory concentration (MIC): Table 3, P3 position derivatives, unit not given
[5] = system: wild type S. aureus 8325; test: microbe, parasite or virus in culture; type: cell-based, Staphylococcus aureus
[6] = system: lepB(P84L) P. aeruginosa PAO1; test: microbe, parasite or virus in culture; type: cell-based, Pseudomonas aeruginosa; settings: for MIC: Pseudomonas aeruginosa, PAO1, Sensitive (genetically sensitized) strain, read-out: MIC; for minimal inhibitory concentration (MIC): Table 3, P3 position derivatives, unit not given
[7] = system: wild type E. coli MG1655; test: microbe, parasite or virus in culture; type: cell-based, Escherichia coli
[8] = system: wild type P. aeruginosa PAO1; test: microbe, parasite or virus in culture; type: cell-based, Pseudomonas aeruginosa
[9] = system: spsB(S29P) S. epidermidis RP62A; test: microbe, parasite or virus in culture; type: cell-based, Staphylococcus epidermidis
[10] = system: S. epidermidis, S. aureus, E. coli, and P. aeruginosa; test: MIC panel; type: cell-based; settings: all bacteria / organisms tested
[11] = system: Streptococcus pyogenes M1-5448; test: microbe, parasite or virus in culture; type: cell-based; settings: Streptococcus pyogenes, M15448; read-out: MIC
[12] = system: Streptococcus pneumoniae R800; test: microbe, parasite or virus in culture; type: cell-based; settings: Streptococcus pneumoniae, R800; read-out: MIC
[13] = system: Brevibacillus brevis ATCC 8246; test: microbe, parasite or virus in culture; type: cell-based; settings: ATCC8246
[14] = system: Corynebacterium efficiens DSM 44549; test: microbe, parasite or virus in culture; type: cell-based; settings: Corynebacterium efficiens, DSM44549; read-out: MIC
[15] = system: Rhodococcus equi ATCC 6939; test: microbe, parasite or virus in culture; type: cell-based; settings: Rhodococcus (subgen. Prescottella) equi, ATCC6939
[16] = system: Streptococcus agalactiae COH-1; test: microbe, parasite or virus in culture; type: cell-based
[17] = system: Rhodococcus opacus DSM 1069; test: microbe, parasite or virus in culture; type: cell-based; settings: Rhodococcus opacus, DSM1069; read-out: MIC
[18] = system: Lactococcus lactis; test: microbe, parasite or virus in culture; type: cell-based; settings: Lactococcus lactis, several values = different isolates/subspecies; read-out: MIC
[19] = system: Corynebacterium glutamicum DSM 44475; test: microbe, parasite or virus in culture; type: cell-based; settings: DSM44475
[20] = system: S. epidermidis ATCC 35984; test: MIC of selected compounds; type: cell-based; settings: Table 1
[21] = system: E. coli PAS0232 (SPase P84S); type: cell-based, Escherichia coli
[22] = system: S. epidermidis PAS9002 (SPase S31P); type: cell-based, Staphylococcus epidermidis
[23] = system: P. aeruginosa PAS2006 (SPase P84S); type: cell-based, Pseudomonas aeruginosa
[24] = system: Gram-positive bacteria (S. epidermidis, S. aureus); test: MIC panel; type: cell-based
[25] = Staphylococcus aureus, read-out: MIC
[26] = Staphylococcus epidermidis, read-out: MIC
[27] = Staphylococcus aureus, Resistant strain (wild type), read-out: MIC
[28] = Escherichia coli, MG1655, Resistant strain (wild type), read-out: MIC
[29] = Pseudomonas aeruginosa, PAO1, Resistant strain (wild type), read-out: MIC

## CCCCCCCCCCCCCCCC(=O)N(C)[C@H](CO)C(=O)N[C@H](C)C(=O)NCC(=O)N(C)[C@@H]1C(=O)N[C@@H](C)C(=O)N[C@H](C(=O)O)Cc2ccc(O)c(c2)-c2cc1ccc2O [Compound 25]
[1]
  activity in words: no activity
[2]; [25]
  MIC: 64 µg/mL
[3]; [26]
  MIC: 32 µg/mL (≈ 36.3 µM)

## CCCCCCCCCCCCCCCC(=O)N(C)[C@H](CO)C(=O)N(C)[C@H](C)C(=O)NCC(=O)N(C)[C@@H]1C(=O)N[C@@H](C)C(=O)N[C@H](C(=O)O)Cc2ccc(O)c(c2)-c2cc1ccc2O [Compound 18]
[1]
  activity in words: complete loss of activity
[4]
  MIC: > 64 µg/mL
[2]; [25]
  MIC: > 64 µg/mL
[5]; [27]
  MIC: > 64 µg/mL
[6]
  MIC: > 64 µg/mL
[7]; [28]
  MIC: > 64 µg/mL
[3]; [26]
  MIC: > 64 µg/mL
[8]; [29]
  MIC: > 64 µg/mL
[9]
  activity in words: retained full activity
[9]; [26]
  MIC: > 64 µg/mL

## CCCCCCCCCCCCCCCC(=O)N(C)[C@H](CO)C(=O)N[C@H](C)C(=O)NCC(=O)N(C)[C@@H]1C(=O)N[C@@H](CCCO)C(=O)N[C@H](C(=O)O)Cc2ccc(O)c(c2)-c2cc1ccc2O [Compound 31]
[10]
  activity in words: All activity was lost
[4]
  minimal inhibitory concentration (MIC): >64
[2]
  minimal inhibitory concentration (MIC): >64
[6]
  minimal inhibitory concentration (MIC): >64
[3]
  minimal inhibitory concentration (MIC): >64

## CCCCCCCCCCCCCCCC(=O)N(C)[C@H](CO)C(=O)N[C@H](C)C(=O)NCC(=O)N(C)[C@@H]1C(=O)N[C@@H](CCCCO)C(=O)N[C@H](C(=O)O)Cc2ccc(O)c(c2)-c2cc1ccc2O [Compound 32]
[10]
  activity in words: All activity was lost
[4]
  minimal inhibitory concentration (MIC): >64
[2]
  minimal inhibitory concentration (MIC): >64
[6]
  minimal inhibitory concentration (MIC): >64
[3]
  minimal inhibitory concentration (MIC): >64

## CCCCCCCCCCCCCCCC(=O)N(C)[C@H](CO)C(=O)N[C@H](C)C(=O)NCC(=O)N(C)[C@@H]1C(=O)N[C@@H](C)C(=O)N[C@H](C(=O)O)Cc2cc(c(O)c([N+](=O)[O-])c2)-c2cc1ccc2O [Arylomycin B-C16, arylomycin B-C16]
[4]
  activity in words: has activity
  MIC: 2 µg/mL
[11]
  MIC: 4 µg/mL (≈ 4.32 µM)
[2]
  activity in words: has activity
[2]; [25]
  MIC: 8 µg/mL
[12]
  MIC: 16 µg/mL (≈ 17.3 µM)
[13]
  MIC: > 64 µg/mL
[14]
  MIC: 16 µg/mL (≈ 17.3 µM)
[15]
  MIC: 32 µg/mL (≈ 34.6 µM)
[16]
  fold more activity than arylomycin C16: greater than 16 fold
[16]; Streptococcus agalactiae, COH1
  MIC: 8 µg/mL (≈ 8.64 µM)
[17]
  MIC: 4 µg/mL (≈ 4.32 µM)
[6]
  activity in words: has activity
  MIC: 4 µg/mL
[7]
  activity in words: no activity
[7]; [28]
  MIC: > 64 µg/mL
[3]
  activity in words: potent activity
[3]; [26]
  MIC: 0.13 µg/mL (≈ 0.14 µM)
[18]
  MIC: 32 µg/mL (≈ 34.6 µM)
[19]
  MIC: 2 µg/mL (≈ 2.16 µM)

## arylomycin A2 [reference compound]
[20]
  MIC: 1 µM
[5]; Table 1, S. aureus 8325
  MIC: >128 µM
[7]; Table 1, E. coli MG1655
  MIC: >128 µM

## arylomycin C16
[2]
  MIC: 2 µg/mL
[21]
  MIC: 2 µg/mL
[5]; Resistant strain (wild type)
  MIC: >128 µg/mL
[22]
  MIC: >128 µg/mL
[7]; Resistant strain (wild type)
  MIC: >128 µg/mL
[3]
  MIC: 0.25 µg/mL
[8]; Resistant strain (wild type)
  MIC: >128 µg/mL
[9]
  MIC: 8 µg/mL
[23]
  MIC: 8 µg/mL

## CCCCCCCCCCCCCCCC(=O)N(C)[C@H](CO)C(=O)N[C@H](C)C(=O)NCC(=O)N(C)[C@@H]1C(=O)N[C@@H](C)C(=O)N[C@H](C(=O)O)Cc2cc(N)c(O)c(c2)-c2cc1ccc2O [Compound 36]
[1]; Gram-negative pathogens
  fold loss of activity relative to the parent compounds: 8 fold
[13]
  MIC: > 64 µg/mL
[24]
  fold loss of activity relative to the parent compounds: 32 fold
[7]; [28]
  MIC: > 64 µg/mL
[3]; [26]
  MIC: 8 µg/mL (≈ 8.93 µM)

## CCCCCCCCc1ccc(C(=O)N(C)[C@H](CO)C(=O)N[C@H](C)C(=O)NCC(=O)N(C)[C@@H]2C(=O)N[C@@H](C)C(=O)N[C@H](C(=O)O)Cc3ccc(O)c(c3)-c3cc2ccc3O)cc1 [Compound 14]
[4]
  MIC: 32 µg/mL
[2]; [25]
  MIC: 64 µg/mL
[5]; [27]
  MIC: > 64 µg/mL
[6]
  MIC: > 64 µg/mL
[7]; [28]
  MIC: > 64 µg/mL
[3]; [26]
  MIC: 8 µg/mL (≈ 9.31 µM)
[8]; [29]
  MIC: > 64 µg/mL
[9]; [26]
  MIC: > 64 µg/mL

## CCCCCCCCc1ccc(-c2ccc(C(=O)N(C)[C@H](CO)C(=O)N[C@H](C)C(=O)NCC(=O)N(C)[C@@H]3C(=O)N[C@@H](C)C(=O)N[C@H](C(=O)O)Cc4ccc(O)c(c4)-c4cc3ccc4O)cc2)cc1 [Compound 12]
[4]
  MIC: 1 µg/mL
[2]; [25]
  MIC: 8 µg/mL
[5]; [27]
  MIC: 64 µg/mL
[6]
  MIC: > 64 µg/mL
[7]; [28]
  MIC: > 64 µg/mL
[3]; [26]
  MIC: 0.5 µg/mL (≈ 0.535 µM)
[8]; [29]
  MIC: > 64 µg/mL
[9]
  activity in words: active
[9]; [26]
  MIC: 32 µg/mL (≈ 34.2 µM)
